Data reported in patent US9340590B2 (priority 2011, dated 2016).
Where two headings read alike, the source gives them in different places. Positions of bridges follow the written chain, without caps; N, C: chain ends. Non-standard residues stand in square brackets, D forms with d. Residues, ends and D or L forms follow the SMILES beside them. 1Nal = N[C@@H](Cc1cccc2ccccc12)C(=O)O; 2Nal = N[C@@H](Cc1ccc2ccccc2c1)C(=O)O

Tests used:
Assay in all cases: cell-based
[1] = molecular target: hNav1.7 (Homo sapiens, UniProt Q15858); assay type: cell-based; conditions: IonWorks Quattro, read-out: IWQ Use Nav1.7
[2] = molecular target: hNav1.3 (Homo sapiens, UniProt Q9NY46); conditions: IonWorks Quattro, read-out: IWQ Use Nav1.3
[3] = molecular target: hNav1.5 (Homo sapiens, UniProt Q14524); conditions: IonWorks Quattro, read-out: IWQ Use Nav1.5

hNav1.7, sequence (Q15858 whole entry, looked up): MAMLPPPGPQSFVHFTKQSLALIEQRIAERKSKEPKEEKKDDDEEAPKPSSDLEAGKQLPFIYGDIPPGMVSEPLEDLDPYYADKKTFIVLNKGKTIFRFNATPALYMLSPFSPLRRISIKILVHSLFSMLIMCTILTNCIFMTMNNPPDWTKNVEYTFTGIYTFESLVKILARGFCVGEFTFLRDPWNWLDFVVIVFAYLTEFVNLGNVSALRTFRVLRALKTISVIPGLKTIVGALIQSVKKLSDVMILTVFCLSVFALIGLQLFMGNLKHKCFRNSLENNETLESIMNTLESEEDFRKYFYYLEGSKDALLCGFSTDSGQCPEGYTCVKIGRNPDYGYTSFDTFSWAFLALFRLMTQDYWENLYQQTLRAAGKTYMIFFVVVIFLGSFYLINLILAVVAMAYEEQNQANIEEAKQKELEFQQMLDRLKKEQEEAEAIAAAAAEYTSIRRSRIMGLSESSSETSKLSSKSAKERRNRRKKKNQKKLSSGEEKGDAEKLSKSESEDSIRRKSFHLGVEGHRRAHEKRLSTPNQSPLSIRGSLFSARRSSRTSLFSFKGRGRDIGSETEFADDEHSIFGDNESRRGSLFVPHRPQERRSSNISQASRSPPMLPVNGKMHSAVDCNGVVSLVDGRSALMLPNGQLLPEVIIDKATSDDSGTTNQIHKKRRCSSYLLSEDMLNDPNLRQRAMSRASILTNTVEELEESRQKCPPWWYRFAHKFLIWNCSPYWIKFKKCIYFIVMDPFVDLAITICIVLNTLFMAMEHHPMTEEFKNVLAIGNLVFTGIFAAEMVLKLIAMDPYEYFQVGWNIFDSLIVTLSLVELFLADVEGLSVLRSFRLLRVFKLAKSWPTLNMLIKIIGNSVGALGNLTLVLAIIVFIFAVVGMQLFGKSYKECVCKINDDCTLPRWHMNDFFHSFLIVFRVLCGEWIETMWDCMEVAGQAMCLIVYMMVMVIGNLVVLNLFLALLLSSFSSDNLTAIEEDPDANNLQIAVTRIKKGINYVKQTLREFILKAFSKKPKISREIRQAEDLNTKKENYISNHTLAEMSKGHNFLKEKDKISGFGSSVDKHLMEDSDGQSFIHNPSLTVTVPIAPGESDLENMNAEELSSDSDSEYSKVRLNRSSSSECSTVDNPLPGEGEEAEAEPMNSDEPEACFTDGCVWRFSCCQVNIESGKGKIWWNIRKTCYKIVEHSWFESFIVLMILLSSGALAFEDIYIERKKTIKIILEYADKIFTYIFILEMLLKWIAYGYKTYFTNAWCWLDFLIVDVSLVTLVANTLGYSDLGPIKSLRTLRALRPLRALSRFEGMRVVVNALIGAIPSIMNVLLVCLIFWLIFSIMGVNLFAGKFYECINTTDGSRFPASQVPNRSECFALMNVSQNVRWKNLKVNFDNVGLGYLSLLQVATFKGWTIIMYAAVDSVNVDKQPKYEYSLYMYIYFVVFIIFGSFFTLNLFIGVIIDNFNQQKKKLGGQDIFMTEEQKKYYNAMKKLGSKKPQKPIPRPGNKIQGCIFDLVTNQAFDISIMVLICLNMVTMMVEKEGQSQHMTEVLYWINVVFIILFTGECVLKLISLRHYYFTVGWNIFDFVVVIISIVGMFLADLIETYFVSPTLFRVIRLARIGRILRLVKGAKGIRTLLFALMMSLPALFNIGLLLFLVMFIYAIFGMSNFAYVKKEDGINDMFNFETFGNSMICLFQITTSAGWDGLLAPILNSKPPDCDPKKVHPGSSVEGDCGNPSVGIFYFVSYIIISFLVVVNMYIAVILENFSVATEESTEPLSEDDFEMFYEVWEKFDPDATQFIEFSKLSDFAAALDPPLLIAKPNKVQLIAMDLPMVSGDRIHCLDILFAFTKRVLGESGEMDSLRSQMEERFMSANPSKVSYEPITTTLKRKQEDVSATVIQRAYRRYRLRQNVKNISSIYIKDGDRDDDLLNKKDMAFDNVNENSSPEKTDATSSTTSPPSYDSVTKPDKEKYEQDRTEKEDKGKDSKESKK
hNav1.3, sequence (Q9NY46 whole entry, looked up): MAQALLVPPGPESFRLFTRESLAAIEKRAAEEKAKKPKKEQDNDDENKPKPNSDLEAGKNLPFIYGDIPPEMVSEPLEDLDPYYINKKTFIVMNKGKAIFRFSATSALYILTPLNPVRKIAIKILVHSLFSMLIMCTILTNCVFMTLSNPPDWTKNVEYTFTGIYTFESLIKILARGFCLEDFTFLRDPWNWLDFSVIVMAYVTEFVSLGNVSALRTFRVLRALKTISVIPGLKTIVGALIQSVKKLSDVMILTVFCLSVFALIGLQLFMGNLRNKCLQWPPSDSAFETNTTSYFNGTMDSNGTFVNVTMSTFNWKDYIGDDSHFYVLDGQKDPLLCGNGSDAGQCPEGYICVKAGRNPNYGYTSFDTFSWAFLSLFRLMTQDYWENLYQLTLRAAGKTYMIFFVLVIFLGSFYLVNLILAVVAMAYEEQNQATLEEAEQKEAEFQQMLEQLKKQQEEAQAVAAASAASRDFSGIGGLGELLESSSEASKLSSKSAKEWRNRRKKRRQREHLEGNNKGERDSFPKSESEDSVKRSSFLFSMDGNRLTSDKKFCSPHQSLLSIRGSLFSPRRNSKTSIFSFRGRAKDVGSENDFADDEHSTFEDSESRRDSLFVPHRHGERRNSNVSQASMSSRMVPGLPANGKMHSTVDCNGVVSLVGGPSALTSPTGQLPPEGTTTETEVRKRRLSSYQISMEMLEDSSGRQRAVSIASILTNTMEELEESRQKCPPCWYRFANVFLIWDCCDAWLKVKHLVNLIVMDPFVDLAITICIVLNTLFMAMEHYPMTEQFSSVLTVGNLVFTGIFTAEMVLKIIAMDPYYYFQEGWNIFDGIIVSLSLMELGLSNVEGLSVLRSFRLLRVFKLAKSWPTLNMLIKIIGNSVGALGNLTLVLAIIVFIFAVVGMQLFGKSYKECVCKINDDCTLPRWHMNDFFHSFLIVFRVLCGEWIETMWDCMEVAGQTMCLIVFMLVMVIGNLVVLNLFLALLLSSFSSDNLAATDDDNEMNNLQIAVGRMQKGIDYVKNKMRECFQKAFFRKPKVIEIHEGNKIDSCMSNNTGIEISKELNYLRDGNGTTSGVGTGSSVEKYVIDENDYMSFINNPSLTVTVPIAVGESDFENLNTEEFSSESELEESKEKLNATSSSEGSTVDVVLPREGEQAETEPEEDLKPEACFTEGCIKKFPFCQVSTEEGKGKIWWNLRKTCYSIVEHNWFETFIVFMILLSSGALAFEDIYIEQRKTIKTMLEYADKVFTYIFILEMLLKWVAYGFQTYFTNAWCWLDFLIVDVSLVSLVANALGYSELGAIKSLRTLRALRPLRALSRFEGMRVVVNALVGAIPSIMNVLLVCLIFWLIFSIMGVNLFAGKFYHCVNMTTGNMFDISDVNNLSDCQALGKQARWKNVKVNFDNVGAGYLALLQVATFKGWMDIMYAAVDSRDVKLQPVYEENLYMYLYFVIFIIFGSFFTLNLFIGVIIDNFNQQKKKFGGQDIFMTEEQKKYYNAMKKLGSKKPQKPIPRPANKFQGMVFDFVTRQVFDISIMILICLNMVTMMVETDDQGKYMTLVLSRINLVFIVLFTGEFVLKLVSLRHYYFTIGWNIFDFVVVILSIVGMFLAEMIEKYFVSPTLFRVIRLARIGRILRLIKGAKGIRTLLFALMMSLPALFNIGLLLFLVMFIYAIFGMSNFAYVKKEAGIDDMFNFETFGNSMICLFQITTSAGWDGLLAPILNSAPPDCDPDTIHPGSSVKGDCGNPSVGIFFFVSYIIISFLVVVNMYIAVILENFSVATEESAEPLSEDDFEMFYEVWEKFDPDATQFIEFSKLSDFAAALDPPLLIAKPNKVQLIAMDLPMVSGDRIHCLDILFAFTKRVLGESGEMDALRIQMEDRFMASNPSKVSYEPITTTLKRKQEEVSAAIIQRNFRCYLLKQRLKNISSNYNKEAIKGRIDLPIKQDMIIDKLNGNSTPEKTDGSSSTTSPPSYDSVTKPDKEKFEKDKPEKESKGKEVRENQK

CC[C@H](C)[C@@H]1NC(=O)[C@@H]2CSSC[C@@H]3NC(=O)[C@H](C(C)C)NC(=O)[C@H](CC(C)C)NC(=O)[C@H](CC(N)=O)NC(=O)[C@@H]4CCCN4C(=O)[C@H](CCCNC(=N)N)NC(=O)[C@H](CSSC[C@H](NC(=O)[C@@H](N)CC(=O)O)C(=O)N[C@@H](CC(C)C)C(=O)NCC(=O)N[C@@H](Cc4ccc5ccccc5c4)C(=O)N[C@@H](CCSC)C(=O)N[C@@H](CCCNC(=N)N)C(=O)N[C@@H](CCCCN)C(=O)N2)NC(=O)[C@H](CSSC[C@@H](C(=O)N[C@@H](CCCCN)C(=O)N[C@@H](Cc2ccc(O)cc2)C(=O)N[C@H](C(=O)N[C@@H](Cc2cccc4ccccc24)C(N)=O)C(C)C)NC(=O)[C@H](Cc2c[nH]c4ccccc24)NC(=O)[C@H](CCCCN)NC(=O)[C@H](Cc2c[nH]cn2)NC(=O)[C@H]([C@@H](C)O)NC(=O)[C@H](CCCNC(=N)N)NC(=O)[C@H](CO)NC3=O)NC(=O)[C@H](CCCCN)NC(=O)[C@H](CC(=O)O)NC(=O)[C@H](CC(N)=O)NC(=O)[C@H](CC(=O)O)NC(=O)[C@@H]2CCCN2C1=O [compound 137] (H-DCLG[2Nal]MRKCIPDNDKCCRPNLVCSRTHKWCKYV[1Nal]-NH2; disulfide 2-17, 9-23, 16-30)
IC50 ([1]; use-dependent block, hNav1.7): 110 nM | IC50 ([2]; use-dependent block, hNav1.3): 20 nM | IC50 ([3]; use-dependent block, hNav1.5): 3150 nM

CC[C@H](C)[C@@H]1NC(=O)[C@@H]2CSSC[C@@H]3NC(=O)[C@H](C(C)C)NC(=O)[C@H](CC(C)C)NC(=O)[C@H](CC(N)=O)NC(=O)[C@@H]4CCCN4C(=O)[C@H](CCCNC(=N)N)NC(=O)[C@H](CSSC[C@H](NC(=O)[C@@H](N)CC(=O)O)C(=O)N[C@@H](CC(C)C)C(=O)NCC(=O)N[C@@H](Cc4ccccc4)C(=O)N[C@@H](CCSC)C(=O)N[C@@H](CCCNC(=N)N)C(=O)N[C@@H](CCCCN)C(=O)N2)NC(=O)[C@H](CSSC[C@@H](C(=O)N[C@@H](CCCCN)C(=O)N[C@@H](Cc2ccc(O)cc2)C(=O)N[C@H](C(=O)N[C@@H](Cc2cccc4ccccc24)C(=O)N[C@@H](Cc2c[nH]c4ccccc24)C(N)=O)C(C)C)NC(=O)[C@H](Cc2c[nH]c4ccccc24)NC(=O)[C@H](CCCCN)NC(=O)[C@H](Cc2c[nH]cn2)NC(=O)[C@H]([C@@H](C)O)NC(=O)[C@H](CCCNC(=N)N)NC(=O)[C@H](CO)NC3=O)NC(=O)[C@H](CCCCN)NC(=O)[C@H](CC(=O)O)NC(=O)[C@H](CC(N)=O)NC(=O)[C@H](CC(=O)O)NC(=O)[C@@H]2CCCN2C1=O [compound 138] (H-DCLGFMRKCIPDNDKCCRPNLVCSRTHKWCKYV[1Nal]W-NH2; disulfide 2-17, 9-23, 16-30)
IC50 ([1]; use-dependent block, hNav1.7): 130 nM | IC50 ([2]; use-dependent block, hNav1.3): 70 nM | IC50 ([3]; use-dependent block, hNav1.5): 2570 nM

CC[C@H](C)[C@@H]1NC(=O)[C@@H]2CSSC[C@@H]3NC(=O)[C@H](C(C)C)NC(=O)[C@H](CC(C)C)NC(=O)[C@H](CC(N)=O)NC(=O)[C@@H]4CCCN4C(=O)[C@H](CCCNC(=N)N)NC(=O)[C@H](CSSC[C@H](NC(=O)[C@@H](N)CC(=O)O)C(=O)N[C@@H](CC(C)C)C(=O)NCC(=O)N[C@@H](Cc4ccccc4)C(=O)N[C@@H](CCSC)C(=O)N[C@@H](CCCNC(=N)N)C(=O)N[C@@H](CCCCN)C(=O)N2)NC(=O)[C@H](CSSC[C@@H](C(=O)N[C@@H](CCCCN)C(=O)N[C@@H](Cc2ccc(O)cc2)C(=O)N[C@H](C(=O)N[C@@H](Cc2ccc4ccccc4c2)C(=O)N[C@@H](Cc2c[nH]c4ccccc24)C(N)=O)C(C)C)NC(=O)[C@H](Cc2c[nH]c4ccccc24)NC(=O)[C@H](CCCCN)NC(=O)[C@H](Cc2c[nH]cn2)NC(=O)[C@H]([C@@H](C)O)NC(=O)[C@H](CCCNC(=N)N)NC(=O)[C@H](CO)NC3=O)NC(=O)[C@H](CCCCN)NC(=O)[C@H](CC(=O)O)NC(=O)[C@H](CC(N)=O)NC(=O)[C@H](CC(=O)O)NC(=O)[C@@H]2CCCN2C1=O [compound 139] (H-DCLGFMRKCIPDNDKCCRPNLVCSRTHKWCKYV[2Nal]W-NH2; disulfide 2-17, 9-23, 16-30)
IC50 ([1]; use-dependent block, hNav1.7): 110 nM | IC50 ([2]; use-dependent block, hNav1.3): 50 nM | IC50 ([3]; use-dependent block, hNav1.5): 2120 nM

CC[C@H](C)[C@@H]1NC(=O)[C@@H](NC(=O)[C@H](CCCCN)NC(=O)[C@H](CCCNC(=N)N)NC(=O)[C@H](CCSC)NC(=O)[C@H](Cc2ccccc2)NC(=O)CNC(=O)[C@H](CC(C)C)NC(=O)[C@H](C)NC(=O)[C@@H](N)CC(=O)O)CSSC[C@@H]2NC(=O)[C@H](C(C)C)NC(=O)[C@H](CC(C)C)NC(=O)[C@H](CC(N)=O)NC(=O)[C@@H]3CCCN3C(=O)[C@H](CCCNC(=N)N)NC(=O)[C@H](C)NC(=O)[C@H](CSSC[C@@H](C(=O)N[C@@H](CCCCN)C(=O)N[C@@H](Cc3ccc(O)cc3)C(=O)N[C@H](C(=O)N[C@@H](Cc3ccccc3)C(N)=O)C(C)C)NC(=O)[C@H](Cc3c[nH]c4ccccc34)NC(=O)[C@H](CCCCN)NC(=O)[C@H](Cc3c[nH]cn3)NC(=O)[C@H]([C@@H](C)O)NC(=O)[C@H](CCCNC(=N)N)NC(=O)[C@H](CO)NC2=O)NC(=O)[C@H](CCCCN)NC(=O)[C@H](CC(=O)O)NC(=O)[C@H](CC(N)=O)NC(=O)[C@H](CC(=O)O)NC(=O)[C@@H]2CCCN2C1=O [compound 140] (H-DALGFMRKCIPDNDKCARPNLVCSRTHKWCKYVF-NH2; disulfide 9-23, 16-30)
IC50 ([1]; use-dependent block, hNav1.7): 2450 nM | IC50 ([2]; use-dependent block, hNav1.3): 790 nM | IC50 ([3]; use-dependent block, hNav1.5): 18900 nM

CC[C@H](C)[C@@H]1NC(=O)[C@@H]2CSSC[C@@H]3NC(=O)[C@H](C(C)C)NC(=O)[C@H](CC(C)C)NC(=O)[C@H](CCC(=O)O)NC(=O)[C@@H]4CCCN4C(=O)[C@H](CCCNC(=N)N)NC(=O)[C@H](CSSC[C@H](NC(=O)[C@@H](N)CC(=O)O)C(=O)N[C@@H](CC(C)C)C(=O)NCC(=O)N[C@@H](Cc4ccccc4)C(=O)N[C@@H](CCSC)C(=O)N[C@@H](CCCNC(=N)N)C(=O)N[C@@H](CCCCN)C(=O)N2)NC(=O)[C@H](CSSC[C@@H](C(=O)N[C@@H](CCCCN)C(=O)N[C@@H](Cc2ccc(O)cc2)C(=O)N[C@H](C(=O)N[C@@H](Cc2ccccc2)C(N)=O)C(C)C)NC(=O)[C@H](Cc2c[nH]c4ccccc24)NC(=O)[C@H](CCCCN)NC(=O)[C@H](Cc2cnc[nH]2)NC(=O)[C@H]([C@@H](C)O)NC(=O)[C@H](CCCNC(=N)N)NC(=O)[C@H](CO)NC3=O)NC(=O)[C@H](CCCCN)NC(=O)[C@H](CC(=O)O)NC(=O)[C@H](CC(N)=O)NC(=O)[C@H](CC(=O)O)NC(=O)[C@@H]2CCCN2C1=O [compound 149] (H-DCLGFMRKCIPDNDKCCRPELVCSRTHKWCKYVF-NH2; disulfide 2-17, 9-23, 16-30)
IC50 ([1]; Use): 1420 nM | IC50 ([2]; Use): 1020 nM | IC50 ([3]; Use): 7490 nM

CC[C@H](C)[C@@H]1NC(=O)[C@@H]2CSSC[C@@H]3NC(=O)[C@H](C(C)C)NC(=O)[C@H](CC(C)C)NC(=O)[C@H](CC(N)=O)NC(=O)[C@@H]4CCCN4C(=O)[C@H](CCCNC(=N)N)NC(=O)[C@H](CSSC[C@H](NC(=O)[C@@H](N)CC(=O)O)C(=O)N[C@@H](CC(C)C)C(=O)NCC(=O)N[C@@H](Cc4ccccc4)C(=O)N[C@@H](CCSC)C(=O)N[C@@H](CCCNC(=N)N)C(=O)N[C@@H](CCCCN)C(=O)N2)NC(=O)[C@H](CSSC[C@@H](C(=O)N[C@@H](CCCCN)C(=O)N[C@@H](Cc2ccc(O)cc2)C(=O)N[C@H](C(=O)N[C@@H](Cc2ccccc2)C(N)=O)C(C)C)NC(=O)[C@H](Cc2c[nH]c4ccccc24)NC(=O)[C@H](CCCCN)NC(=O)[C@H](Cc2cnc[nH]2)NC(=O)[C@H]([C@@H](C)O)NC(=O)[C@H](CCCNC(=N)N)NC(=O)[C@H](CCC(=O)O)NC3=O)NC(=O)[C@H](CCCCN)NC(=O)[C@H](CC(=O)O)NC(=O)[C@H](CC(N)=O)NC(=O)[C@H](CC(=O)O)NC(=O)[C@@H]2CCCN2C1=O [compound 150] (H-DCLGFMRKCIPDNDKCCRPNLVCERTHKWCKYVF-NH2; disulfide 2-17, 9-23, 16-30)
IC50 ([1]; Use): 6120 nM | IC50 ([2]; Use): 6780 nM | IC50 ([3]; Use): 11500 nM

CC[C@H](C)[C@@H]1NC(=O)[C@@H]2CSSC[C@@H]3NC(=O)[C@H](C(C)C)NC(=O)[C@H](CC(C)C)NC(=O)[C@H](CC(N)=O)NC(=O)[C@@H]4CCCN4C(=O)[C@H](CCCNC(=N)N)NC(=O)[C@H](CSSC[C@H](NC(=O)[C@@H](N)CC(=O)O)C(=O)N[C@@H](CC(C)C)C(=O)NCC(=O)N[C@@H](Cc4ccccc4)C(=O)N[C@@H](CCSC)C(=O)N[C@@H](CCCNC(=N)N)C(=O)N[C@@H](CCCCN)C(=O)N2)NC(=O)[C@H](CSSC[C@@H](C(=O)N[C@@H](CCCCN)C(=O)N[C@@H](Cc2ccc(O)cc2)C(=O)N[C@H](C(=O)N[C@@H](Cc2ccccc2)C(N)=O)C(C)C)NC(=O)[C@H](Cc2c[nH]c4ccccc24)NC(=O)[C@H](CCCCN)NC(=O)[C@H](Cc2c[nH]cn2)NC(=O)[C@H]([C@@H](C)O)NC(=O)[C@H](CCC(=O)O)NC(=O)[C@H](CO)NC3=O)NC(=O)[C@H](CCCCN)NC(=O)[C@H](CC(=O)O)NC(=O)[C@H](CC(N)=O)NC(=O)[C@H](CC(=O)O)NC(=O)[C@@H]2CCCN2C1=O [compound 151] (H-DCLGFMRKCIPDNDKCCRPNLVCSETHKWCKYVF-NH2; disulfide 2-17, 9-23, 16-30)
IC50 ([1]; Use): 710 nM | IC50 ([2]; Use): 1170 nM | IC50 ([3]; Use): 14000 nM
